Values joined by “and” are separate entries in the source; they are usually repeats but may differ in a detail not shown here. Equal entries are not always repeated. ± gives the uncertainty stated by the source.

One may read the viscosity as the internal friction of a fluid under shear. High values mean a thick fluid, low ones a thin fluid.

`C1CCC2=[NH+]CCCN2CC1.c1nc[n-]n1`: the viscosity (303.15 K, 100 kPa) is reported as 1356 ± 170 mPa·s.

For `CC(=O)OC(C)(C)C`, the viscosity worked out at 0.683 ± 0.008 mPa·s (298.15 K, 101 kPa) and 0.596 ± 0.008 mPa·s (308.15 K, 101 kPa).

Turning to `CC(C)(C)c1ccccc1`, the viscosity amounted to 1.13 ± 0.02 mPa·s (293.15 K, 102 kPa); 1.118 ± 0.011 mPa·s (298.15 K, 100 kPa); 0.982 ± 0.021 mPa·s (303.15 K, 102 kPa); 0.97 ± 0.01 mPa·s (308.15 K, 100 kPa); 0.854 ± 0.021 mPa·s (313.15 K, 102 kPa); 0.853 ± 0.009 mPa·s (318.15 K, 100 kPa). Where the note is “323.15 K, 102 kPa”, this compound had a viscosity of 0.751 ± 0.021 mPa·s.

`CC(C)CO`: the viscosity reads like this: (293.15 K, 101 kPa) 4.02 mPa·s and 4.009 ± 0.039 mPa·s; (293.15 K, 101.33 kPa) 4.008 ± 0.04 mPa·s and 2.75 ± 0.046 mPa·s; (297 K, 101 kPa) 3.569 ± 0.022 mPa·s; (298.15 K, 101.3 kPa) 3.247 ± 0.044 mPa·s and 3.256 ± 0.04 mPa·s; (298.15 K, 101.33 kPa) 3.537 ± 0.35 mPa·s and 3.41 mPa·s and 3.41 ± 0.15 mPa·s; (303 K, 101 kPa) 2.943 ± 0.018 mPa·s. Moreover, the viscosity was 2.58 ± 0.27 mPa·s (303 K, 101.33 kPa); 2.938 ± 0.063 mPa·s and 2.781 ± 0.086 mPa·s (303.15 K, 100 kPa); 2.745 ± 0.039 mPa·s and 2.743 ± 0.034 mPa·s and 2.842 ± 0.064 mPa·s (303.15 K, 101.3 kPa); 2.54 ± 0.26 mPa·s and 2.982 ± 0.03 mPa·s and 2.1 ± 0.036 mPa·s (303.15 K, 101.33 kPa); 2.261 mPa·s (308 K, 101 kPa); 2.487 ± 0.053 mPa·s and 2.231 ± 0.069 mPa·s (308.15 K, 100 kPa). Also, the viscosity was 2.433 ± 0.24 mPa·s (308.15 K, 101.33 kPa); 2.169 ± 0.014 mPa·s (313 K, 101 kPa); 2.174 ± 0.046 mPa·s (313.15 K, 100 kPa); 2.17 ± 0.024 mPa·s and 2.138 ± 0.024 mPa·s and 1.96 ± 0.43 mPa·s (313.15 K, 101 kPa); 2.08 ± 0.048 mPa·s (313.15 K, 101.3 kPa); 2.186 ± 0.022 mPa·s and 1.65 ± 0.028 mPa·s (313.15 K, 101.33 kPa). Besides, the viscosity is 1.751 ± 0.011 mPa·s and 1.834 ± 0.017 mPa·s (318.15 K, 101 kPa); 1.804 ± 0.18 mPa·s (318.15 K, 101.33 kPa); 1.632 ± 0.01 mPa·s (323 K, 101 kPa); 1.637 ± 0.035 mPa·s (323.15 K, 100 kPa); 1.663 ± 0.017 mPa·s (323.15 K, 101.33 kPa).

For `CC1CCCO1` (stereo not drawn), the viscosity is, setting by setting: (298.15 K, 101 kPa) 0.463 ± 0.0055 mPa·s; (298.15 K, 101.33 kPa) 0.4753 ± 0.005 mPa·s.

Where the note is “298.1 K, 101 kPa”, `CCCC=O` had a viscosity of 0.403 ± 0.015 mPa·s.

On to `CCCCCCCCCCCCCC(=O)OC`, for which, where the note is “323.15 K, 100 kPa”, the viscosity stood at 2.301 ± 0.094 mPa·s.

As for `CCCCCCCCCCCCc1ccccc1`, the viscosity came out at 5.47 ± 0.02 mPa·s (293.15 K, 102 kPa); 4.21 ± 0.02 mPa·s (303.15 K, 102 kPa); 3.33 ± 0.02 mPa·s (313.15 K, 102 kPa); 2.71 ± 0.02 mPa·s (323.15 K, 102 kPa).

On to `CCCCCOC(=O)CCC`, for which the viscosity was determined as 1.07 ± 0.01 mPa·s (298.15 K, 101 kPa) and 0.86 ± 0.009 mPa·s (313.15 K, 101 kPa).

For the compound `CCCCCOC(C)=O`, the viscosity was 0.931 ± 0.15 mPa·s (293.15 K, 101.33 kPa); 0.7522 ± 0.0063 mPa·s and 0.7522 ± 0.0049 mPa·s (303.15 K, 101.3 kPa); 0.805 ± 0.14 mPa·s (303.15 K, 101.33 kPa); 0.663 ± 0.007 mPa·s (313.15 K, 101 kPa); 0.676 ± 0.13 mPa·s (313.15 K, 101.33 kPa); 0.589 ± 0.008 mPa·s (323.15 K, 101 kPa). Further, the viscosity (323.15 K, 101.33 kPa) is 0.552 ± 0.12 mPa·s.

As for `CCC[N+]1(C)CCCCC1.O=S(=O)([N-]S(=O)(=O)C(F)(F)F)C(F)(F)F`, the viscosity is 199 ± 40 mPa·s (293.15 K, 101.3 kPa); 147 ± 30 mPa·s (298.15 K, 101.3 kPa); 112 ± 22 mPa·s (303.15 K, 101.3 kPa); 86.6 ± 17 mPa·s (308.15 K, 101.3 kPa); 68.5 ± 14 mPa·s (313.15 K, 101.3 kPa); 55.1 ± 11 mPa·s (318.15 K, 101.3 kPa). For the setting “323.15 K, 101.3 kPa”, the viscosity was 45.1 ± 9 mPa·s.

`CCOC(=O)CC` came in with a viscosity (303.15 K, 101 kPa) of 0.4833 ± 0.0051 mPa·s.

As to `CCn1cc[n+](C)c1.O=S(=O)([O-])C(F)(F)F`, the viscosity (293.15 K, 101 kPa) is given as 48.6 ± 3 mPa·s; the viscosity (298.15 K, 101 kPa) was 43.8 ± 0.9 mPa·s and 40.44 ± 2.5 mPa·s; the viscosity (303.15 K, 101 kPa) was 36.7 ± 0.8 mPa·s and 34.02 ± 2.1 mPa·s; the viscosity (308.15 K, 101 kPa) is 32.28 ± 0.89 mPa·s; the viscosity (313.15 K, 101 kPa) is 26.6 ± 0.6 mPa·s and 24.89 ± 1.5 mPa·s; the viscosity (318.15 K, 101 kPa) is on record as 21.55 ± 1.3 mPa·s. The compound also yielded a viscosity (323.15 K, 101 kPa) of 18.64 ± 1.1 mPa·s.

On to `Cc1ccccc1O`, for which the viscosity runs as follows: (293.15 K, 101 kPa) 9.56 ± 0.14 mPa·s; (298.15 K, 101 kPa) 7.607 ± 0.6 mPa·s and 7.608 ± 0.11 mPa·s; (298.15 K, 101.33 kPa) 7.493 ± 0.21 mPa·s; (308.15 K, 101.33 kPa) 4.853 ± 0.14 mPa·s; (313.15 K, 101 kPa) 4.312 ± 0.13 mPa·s and 4.238 ± 0.032 mPa·s and 4.1 ± 0.043 mPa·s; (313.15 K, 101.3 kPa) 4.243 ± 0.049 mPa·s. Besides, the viscosity runs as follows: (318.15 K, 101 kPa) 3.506 ± 0.31 mPa·s and 2.215 ± 0.019 mPa·s; (318.15 K, 101.33 kPa) 3.359 ± 0.095 mPa·s; (323.15 K, 101.3 kPa) 3.02 ± 0.036 mPa·s; (323.15 K, 101.33 kPa) 2.83 ± 0.079 mPa·s.

`ClCC(Cl)Cl` showed a viscosity (298.15 K, 101 kPa) of 1.061 ± 0.01 mPa·s; a viscosity (308.15 K, 100 kPa) of 0.953 ± 0.03 mPa·s; a viscosity (313.15 K, 100 kPa) of 0.887 ± 0.027 mPa·s.

On to `O=C1OCCO1`, for which the viscosity runs as follows: (298.15 K, 101.3 kPa) 2.263 ± 0.018 mPa·s; (313.15 K, 100 kPa) 1.81 ± 0.18 mPa·s and 1.917 ± 0.041 mPa·s; (313.15 K, 101.3 kPa) 1.879 ± 0.015 mPa·s; (313.15 K, 101.33 kPa) 1.93 ± 0.007 mPa·s; (323.15 K, 100 kPa) 1.56 ± 0.16 mPa·s.

The values above are taken from the CheMixHub viscosity set.
